One data set concerns the target FLT3 (Homo sapiens (Human), UniProt P36888). Briefly: biochemical. The class given is binding.
The target in data set [1] is T1, CYP2C19 (Homo sapiens (Human), UniProt P33261). As to the kind of experiment: Inhibitory constant KI in human liver microsomes, CYP2C19. The class given is in vitro ADME. Particulars: for Ki: CYP2C19, global non-linear regression. As for the experimental part: A 2 mM stock of Compound I-1 was prepared in acetonitrile (ACN) and serially diluted 2-fold from 2000 μM to 15.63 μM in ACN. […] Individual human liver microsome preparations containing the substrate were then incubated with Compound I-1 (final concentration range 40 μM to 0.31 μM of Compound I-1) for a final incubation concentration of 0.5 mg/mL microsome, 75 mM KPO4, 6.5 mM MgCl2, 1 mM NADPH and 2% acetonitrile (ACN). The samples were incubated in a 37° C. shaking water bath for 20 minutes then quenched with ACN:water (75:25) containing internal standards propranolol at 0.3 ng/mL and cortisone at 0.3 ng/mL. After brief mixing, the plate was centrifuged and the supernate removed for analysis by LC/MS/MS (API 4000 Qtrap) for formation of 6-hydroxy-testosterone (CYP3A4), 4-hydroxy-mephenyloin (CYP2C19) or hydroxy-taxol (CYP2C8). The data was analyzed using global non-linear regression software (GraphPad Prism) and the overall fit of the data (R^2) was used to determine if Compound I-1 was a competitive, non-competitive, or uncompetitive inhibitor. In addition the data was plotted as a Lineweaver-Burke graph (1/V versus 1/S, where V is the […] and S is the substrate concentration) for each inhibitor concentration. Based on the location of convergence (competitive and non-competitive) or non convergence (uncompetitive) of the plots at each inhibitor concentration, the type of inhibition was determined.
Global non-linear regression allows analysis of all the individual inhibitor curves simultaneously and determines the best fit value for shared parameters between the data sets, in this case KI (or KI′). The results of the global nonlinear analysis of Compound I-1 inhibition of the CYP450 isoforms 3A4, 2C19 and 2C8 are shown in Table 12.
(In general: Microsomes from liver hold many membrane-bound enzymes, among them those of drug oxidation.)

The test system of a further data set is MV4;11 cells. Briefly: MV4;11 cellular proliferation assay (Cell Titer Blue). The class given is cell-based. Particulars: Homo sapiens, MV4-11, 72 h, read-out: EC50 (50% inhibition of cellular proliferation).
Another data set concerns the target FLT3 (K663Q) (Homo sapiens (Human), UniProt P36888, K663Q). Briefly: biochemical. The class given is binding.
In a further data set the target is CYP2C9 (Homo sapiens (Human), UniProt P11712). As to the kind of experiment: Cyp enzyme inhibition assay in human liver microsomes, CYP2C9. Particulars: CYP2C9, substrate Diclofenac. Type of data set: in vitro ADME. The protocol: (§1) The ability of the compound I-1 to inhibit human metabolizing enzymes CYP3A4, CYP2C9, […], CYP2C19 and CYP1A2, was assessed using those enzymes found collectively in human liver microsomes. The test compound I-1 was prepared as a solution in DMSO or acetonitrile and plated in duplicate rows of a 96-well plate (Nunc) for a final assay concentration of 40 μM in 0.2% DMSO (or 2% acetonitrile) in the first column and serially diluted two-fold going down the row. A known selective inhibitor of a given CYP enzyme listed in Table 8 was selected as the appropriate positive control. For each CYP enzyme inhibition assay, an appropriate enzyme-substrate mixture was prepared to afford a final assay concentration of 75 mM KPO4/pH 7.4, 6.5 mM MgCl2, 0.25 mg/mL pooled male and female human liver microsome (CellzDirect lot HMMC-PL020) with the amounts of the appropriate substrate for each CYP enzyme assay given in Table 8. The enzyme-substrate mixture was added to columns 1 through 10 and column 11 served as a negative control with enzyme solution lacking substrate. A solution of NADPH (Calbiochem) was then added to all rows except for one where NADPH would be added after the incubation period, in order to detect NADPH-independent non-CYP-mediated metabolism. The plate was briefly vortexed and left to shake in a 37° C. water bath for 20 minutes. […]

Data set [2] is described as follows: Aqueous and surfactant solubility. Type of data set: physicochemical. The note with it: kinetic from dmso stock, room temperature overnight.
Method: After equilibration at room temperature overnight the solutions were filtered and solute concentration determined by fast gradient HPLC without further dilution of the samples. […] These analytical standards were prepared from a 500 μM intermediate stock solution made by diluting 10 μl of the 10 mM sample stocks into 190 μl of 50:50 (v/v) acetonitrile/water. Aliquots of this solution were transferred in duplicate into a 96 well plate in the amounts of 0.4, 2, 4, 20, 40, and 100 μl with the volumes made up to 200 total μl with acetonitrile/water and the plate was then heat sealed with a foil sheet. Prior to sample filtration, filters were primed with 600 μl of sample to resolve potential adsorption problems. Both sample replicates were collected through the primed filter. Duplicate determinations were made in all cases.
A further data set concerns RS4;11 cells. Briefly: RS4;11 cellular proliferation assay (Cell Titer Blue). The class given is cell-based. Particulars: Homo sapiens, RS4-11, 48 h, read-out: EC50 (50% inhibition of cellular proliferation). (Alamar Blue is a resazurin reagent that responds to reducing activity.)
Data set [3] deals with T1, CYP2C19. Briefly: Cyp enzyme inhibition assay in human liver microsomes, CYP2C19. The class given is in vitro ADME. Particulars: CYP2C19, substrate mephenytoin. As for the experimental part:
as §1

The target in the next data set is hERG channel (Homo sapiens (Human), UniProt Q12809). As to the kind of experiment: hERG channel inhibition, whole cell recordings in CHO cells. Particulars: 10 μM. In general terms: The hERG channel carries a current that helps repolarise heart muscle cells.
The target of the next data set is CYP3A4 (Homo sapiens (Human), UniProt P08684). Briefly: Cyp enzyme inhibition assay in human liver microsomes, CYP3A4. The note with it: CYP3A4, substrate testosterone. Type of data set: in vitro ADME. As for the experimental part:
as §1

Results on 1 compound are retold here after patent US8551963B2, “Imidazolothiazole compounds and methods of use thereof” (Ambit Biosciences Corporation, priority 2008, dated 2013).

Each structure is given as a SMILES string. ≈ marks a conversion by molar mass, not a printed value. Entries after “also recorded” stand apart in the source; their conditions may differ. Read-outs that look alike come from different tables or passages of the source.

T1 sequence (P33261 whole entry): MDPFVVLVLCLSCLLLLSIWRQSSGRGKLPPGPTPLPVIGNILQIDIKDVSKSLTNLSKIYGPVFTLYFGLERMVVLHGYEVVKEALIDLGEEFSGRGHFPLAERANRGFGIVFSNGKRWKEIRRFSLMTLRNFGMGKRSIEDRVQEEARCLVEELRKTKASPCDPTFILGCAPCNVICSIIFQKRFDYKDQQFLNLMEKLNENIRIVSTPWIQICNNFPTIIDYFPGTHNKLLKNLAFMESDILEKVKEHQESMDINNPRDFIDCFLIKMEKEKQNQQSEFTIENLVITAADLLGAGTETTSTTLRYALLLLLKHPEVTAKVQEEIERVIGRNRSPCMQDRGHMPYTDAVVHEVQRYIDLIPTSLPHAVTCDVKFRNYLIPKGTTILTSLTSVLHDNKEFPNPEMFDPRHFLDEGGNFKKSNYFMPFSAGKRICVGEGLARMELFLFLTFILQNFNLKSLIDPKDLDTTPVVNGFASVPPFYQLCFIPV
hERG channel, sequence (Q12809 whole entry): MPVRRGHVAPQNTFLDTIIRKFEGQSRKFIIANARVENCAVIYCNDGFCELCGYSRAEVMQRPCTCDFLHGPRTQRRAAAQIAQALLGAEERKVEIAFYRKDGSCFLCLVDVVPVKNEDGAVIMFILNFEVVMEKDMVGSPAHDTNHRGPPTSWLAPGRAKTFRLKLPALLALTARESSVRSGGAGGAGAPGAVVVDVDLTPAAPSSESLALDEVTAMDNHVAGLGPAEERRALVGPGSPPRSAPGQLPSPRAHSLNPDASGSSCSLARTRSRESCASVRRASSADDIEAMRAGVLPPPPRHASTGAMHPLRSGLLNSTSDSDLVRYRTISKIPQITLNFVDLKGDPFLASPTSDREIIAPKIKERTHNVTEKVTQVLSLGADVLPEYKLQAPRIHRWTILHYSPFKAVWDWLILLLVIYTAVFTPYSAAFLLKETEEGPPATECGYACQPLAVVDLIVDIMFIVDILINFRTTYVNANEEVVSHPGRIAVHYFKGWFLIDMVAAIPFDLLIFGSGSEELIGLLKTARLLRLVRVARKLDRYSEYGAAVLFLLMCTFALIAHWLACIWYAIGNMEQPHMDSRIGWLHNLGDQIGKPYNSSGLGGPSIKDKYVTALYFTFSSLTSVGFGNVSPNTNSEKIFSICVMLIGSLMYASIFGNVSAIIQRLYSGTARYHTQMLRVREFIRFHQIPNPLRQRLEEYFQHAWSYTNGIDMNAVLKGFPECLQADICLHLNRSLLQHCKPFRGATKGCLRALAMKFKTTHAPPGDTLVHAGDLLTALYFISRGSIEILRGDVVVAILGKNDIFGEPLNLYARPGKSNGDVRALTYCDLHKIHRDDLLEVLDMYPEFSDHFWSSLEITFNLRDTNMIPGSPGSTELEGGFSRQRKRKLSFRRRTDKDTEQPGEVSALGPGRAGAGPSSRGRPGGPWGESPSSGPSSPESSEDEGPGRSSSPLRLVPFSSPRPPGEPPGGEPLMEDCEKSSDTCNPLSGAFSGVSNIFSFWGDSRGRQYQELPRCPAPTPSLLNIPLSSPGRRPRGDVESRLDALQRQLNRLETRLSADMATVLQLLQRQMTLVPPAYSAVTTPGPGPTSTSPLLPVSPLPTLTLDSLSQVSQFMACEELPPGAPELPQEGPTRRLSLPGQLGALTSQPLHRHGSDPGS
CYP2C9, sequence (P11712 whole entry): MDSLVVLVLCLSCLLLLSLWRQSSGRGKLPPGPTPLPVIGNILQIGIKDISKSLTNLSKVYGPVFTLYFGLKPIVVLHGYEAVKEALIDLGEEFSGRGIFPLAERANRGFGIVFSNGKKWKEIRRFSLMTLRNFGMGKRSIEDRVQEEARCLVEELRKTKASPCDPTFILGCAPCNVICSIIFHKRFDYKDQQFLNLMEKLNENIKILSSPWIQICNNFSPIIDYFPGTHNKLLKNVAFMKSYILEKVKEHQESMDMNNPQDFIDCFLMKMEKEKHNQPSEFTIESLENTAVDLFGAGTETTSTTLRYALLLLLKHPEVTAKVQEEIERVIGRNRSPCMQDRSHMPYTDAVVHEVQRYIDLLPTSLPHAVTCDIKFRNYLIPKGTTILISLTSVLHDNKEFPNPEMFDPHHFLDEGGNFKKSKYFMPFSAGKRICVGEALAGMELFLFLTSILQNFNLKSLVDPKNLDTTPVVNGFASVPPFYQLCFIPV
CYP3A4, sequence (P08684 whole entry): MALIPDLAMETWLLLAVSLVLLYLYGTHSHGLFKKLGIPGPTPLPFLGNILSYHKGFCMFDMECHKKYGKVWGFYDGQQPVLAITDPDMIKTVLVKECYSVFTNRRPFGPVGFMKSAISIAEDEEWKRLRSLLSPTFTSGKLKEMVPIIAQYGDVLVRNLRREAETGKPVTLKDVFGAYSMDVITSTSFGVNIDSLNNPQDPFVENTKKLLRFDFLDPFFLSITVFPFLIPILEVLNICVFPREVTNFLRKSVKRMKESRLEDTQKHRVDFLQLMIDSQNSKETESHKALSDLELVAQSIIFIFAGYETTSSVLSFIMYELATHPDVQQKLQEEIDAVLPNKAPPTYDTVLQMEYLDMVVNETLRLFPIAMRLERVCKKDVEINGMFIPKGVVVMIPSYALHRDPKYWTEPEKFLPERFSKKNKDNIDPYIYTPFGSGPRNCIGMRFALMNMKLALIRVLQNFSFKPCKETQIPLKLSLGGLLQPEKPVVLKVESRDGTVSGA
Method for FLT3 (K663Q): Competition binding assays used herein were developed, validated and performed as described in Fabian et al., Nature Biotechnology 2005, 23, 329-336. Kinases were produced as fusions to T7 phage (See, Fabian et al. or WO04/015142) or alternatively, the kinases were expressed in HEK-293 cells and subsequently tagged with DNA for PCR detection (See, WO08/005,310). […] The liganded beads were blocked with excess biotin and washed with blocking buffer (SeaBlock (Pierce), 1% BSA, 0.05% Tween 20, 1 mM DTT) to remove unbound ligand and to reduce non-specific binding. […] Test compounds were prepared as 100× stocks in DMSO and rapidly diluted into the aqueous environment. DMSO was added to control assays lacking a test compound. […] The kinase concentration in the eluates was measured by quantitative PCR. Each kinase was tested individually against each compound. Kds were determined using eleven serial threefold dilutions.
Method for MV4;11 cells: (§2) Cells were cultured overnight in low serum media with 0.5% FBS. The following day, cells were seeded on to a 96-well plate at 40,000 cells per well at a volume of 100 μL per well.
(§3) CTB reagent was thawed in a 37° C. water bath. 40 μL of CTB reagent was added to the plate containing the cells, and the cells were incubated with the reagent at 37° C. in 5% CO2 for 3 hours. The absorbance was measured at 560 nm (excitation)/590 nm (emission) using Spectramax Plus 384 Absorbance Microplate Reader by Molecular Devices.
Method for RS4;11 cells: as §2, §3
Method for hERG channel: Test articles in this study were therefore characterized to determine their ability to inhibit the hERG channel. Ion channel activity was measured using a stably transfected Chinese Hamster Ovary (CHO) cell line expressing the hERG mRNA.
A CHO cell line stably expressing hERG channels was obtained from Aviva Systems Biology LLC and used for the study. Cells were cultured in DMEM/F12 containing 10% FBS, 1% penicillin/streptomycin and 500 μg/ml G418. Before testing, cells were harvested using Accumax (Innovative Cell Technologies).
Whole cell recordings were performed using PX 7000A (Axon Instruments) with AVIVA's SealChip™ technology. Cells were voltage clamped at a holding potential of −80 mV. The hERG current was then activated by a depolarizing step to −50 mV for 300 ms. This first step at −50 mV was used as a baseline for measuring peak amplitude of the tail current. Next, a voltage step to +20 mV was applied for 5 s to activate the channels. Finally a step back to −50 mV for 5 s removed activation and the deactivating tail current was recorded.
All compounds were prepared from either 10 or 30 mM DMSO stock solutions. Solutions were mixed by sonication for 20 min, followed by vigorous vortexing. […]
After achieving whole cell configuration, cells were monitored for 90 s to assess stability and then washed with External Solution for 66 s. […]

For `CC(C)(CO)c1cc(NC(=O)Nc2ccc(-c3cn4c(n3)sc3cc(OCCN5CCOCC5)ccc34)cc2)no1` [Compound I-1, 1-[5-(2-hydroxy-1,1-dimethyl-ethyl)-isoxazol-3-yl]-3-{4-[7-(2-morpholin-4-yl-ethoxy)-benzo[d]imidazo[2,1-b]thiazol-2-yl]-phenyl}-urea], the Kd on FLT3 was found to be 0.68 nM; at FLT3 (K663Q), 0.69 nM. Moreover, on CYP2C19 [1] (CYP2C19), the Type of inhibition entry was “non-competitive inhibition; also recorded: weak non-competitive inhibitor”. Further, the Ki at CYP2C19 [1] (read-out: Best Fit KI, Competitive) is 1.7 µM; on CYP2C19 [1] (read-out: Best Fit KI, Non-competitive), 10.4 µM; at CYP2C19 [1] (read-out: Best Fit KI′, Uncompetitive), 7.4 µM. Also, the EC50 in the data set on MV4;11 cells stood at 0.3 nM; with RS4;11 cells, 2 nM. Further, the IC50 on CYP2C9 was > 40 µM; on CYP2C19 [3], 15.5 µM; on CYP3A4, > 40 µM. The solubility in data set [2] (HBSS buffer with 0.05% Polysorbate 80, pH 7.4, aqueous with cosolvent or surfactant or cyclodextrin, HBSS containing 0.05% Polysorbate 80, 2.5% DMSO, read-out: Average Aqueous Solubility, 0.05% Polysorbate 80) was 2 µM (≈ 1.15 µg/mL); in data set [2] (Hank's balanced salt solution (HBSS) buffer, aqueous buffer, HBSS pH 7.4, 2.5% DMSO, read-out: Average Aqueous Solubility, pH 7.4), < 1 µM. Moreover, the “% Block Trial 1” value on hERG channel was <10%. On hERG channel, the “% Block Trial 2” value is <10%.

The Kd is the concentration at which binding is half-saturated. Read a low Kd as higher affinity. The term Ki denotes a dissociation constant, usually derived from enzyme kinetics or from competition with a known ligand. A word on the IC50: it is the point on the concentration scale where inhibition reaches its midpoint. As usually defined, the solubility is the concentration that dissolves in the medium under given conditions.
